Assay results reported in patent US10131652B2, “Pyrimidinyloxy benzene derivatives as herbicides” (E. I. DU PONT DE NEMOURS AND COMPANY, priority 2014, dated 2018).
Where two headings read alike, the source gives them in different places.

Assays:
Experiment in all cases: Test D pre-/postemergence plant response
Format in all cases: in vivo
[1] = test system: large (Lg) crabgrass (Digitaria sanguinalis); details: Digitaria sanguinalis, pre-emergence, Preemergence, scale 0 to 100 (0 no effect, 100 complete control), read-out: Plant response rating, Crabgrass, Large
In short: (§1)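 Ratings were visual, 0 = no effect to 100 = complete control, taken against untreated controls after 13 to 15 days in a greenhouse. Chemicals, formulated in non-phytotoxic surfactant-containing solvent, went onto soil (loam/sand) at planting for preemergence, or onto 1- to 4-leaf plants (2–18 cm) for postemergence.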

[2] = test system: morningglory (Ipomoea coccinea); details: Ipomoea; for pest or weed control at 31 g/ha: 31 g ai/ha; for pest or weed control at 62 g/ha: 62 g ai/ha; for pest or weed control at 125 g/ha: 125 g ai/ha
In short: as §1

[3] = test system: oilseed rape (Brassica napus); details: Brassica napus; for plant injury at 31 g/ha: 31 g ai/ha; for plant injury at 62 g/ha: 62 g ai/ha; for plant injury at 125 g/ha: 125 g ai/ha
In short: as §1

[4] = test system: pigweed (Amaranthus retroflexus); details: Amaranthus retroflexus; for pest or weed control at 31 g/ha: 31 g ai/ha; for pest or weed control at 62 g/ha: 62 g ai/ha; for pest or weed control at 125 g/ha: 125 g ai/ha
In short: as §1

[5] = test system: ragweed (common ragweed, Ambrosia elatior); details: Ambrosia artemisiifolia; for pest or weed control at 31 g/ha: 31 g ai/ha; for pest or weed control at 62 g/ha: 62 g ai/ha; for pest or weed control at 125 g/ha: 125 g ai/ha
In short: as §1

soybean (Glycine max) = details: Glycine max; for plant injury at 31 g/ha: 31 g ai/ha; for plant injury at 62 g/ha: 62 g ai/ha; for plant injury at 125 g/ha: 125 g ai/ha
In short: as §1

[6] = test system: velvetleaf (Abutilon theophrasti); details: Abutilon theophrasti; for pest or weed control at 31 g/ha: 31 g ai/ha; for pest or weed control at 62 g/ha: 62 g ai/ha; for pest or weed control at 125 g/ha: 125 g ai/ha
In short: as §1

[7] = test system: waterhemp (common waterhemp, Amaranthus rudis); details: Amaranthus tuberculatus; for pest or weed control at 31 g/ha: 31 g ai/ha; for pest or weed control at 62 g/ha: 62 g ai/ha; for pest or weed control at 125 g/ha: 125 g ai/ha
In short: as §1

[8] = test system: winter wheat (Triticum aestivum); details: Triticum aestivum; for plant injury at 31 g/ha: 31 g ai/ha; for plant injury at 62 g/ha: 62 g ai/ha; for plant injury at 125 g/ha: 125 g ai/ha
In short: as §1

[9] = test system: yellow nutsedge (Cyperus esculentus); details: Cyperus; for pest or weed control at 31 g/ha: 31 g ai/ha; for pest or weed control at 62 g/ha: 62 g ai/ha; for pest or weed control at 125 g/ha: 125 g ai/ha
In short: as §1

[10] = post-emergence, Postemergence, scale 0 to 100, 0 no effect, 100 complete control, read-out: Plant response rating, Morningglory
[11] = pre-emergence, Preemergence, scale 0 to 100 (0 no effect, 100 complete control), read-out: Plant response rating, Morningglory
[12] = post-emergence, Postemergence, scale 0 to 100, 0 no effect, 100 complete control, read-out: Plant response rating, Oilseed Rape
[13] = pre-emergence, Preemergence, scale 0 to 100 (0 no effect, 100 complete control), read-out: Plant response rating, Oilseed Rape
[14] = post-emergence, Postemergence, scale 0 to 100, 0 no effect, 100 complete control, read-out: Plant response rating, Pigweed
[15] = pre-emergence, Preemergence, scale 0 to 100 (0 no effect, 100 complete control), read-out: Plant response rating, Pigweed
[16] = post-emergence, Postemergence, scale 0 to 100, 0 no effect, 100 complete control, read-out: Plant response rating, Ragweed
[17] = pre-emergence, Preemergence, scale 0 to 100 (0 no effect, 100 complete control), read-out: Plant response rating, Ragweed
[18] = post-emergence, Postemergence, scale 0 to 100, 0 no effect, 100 complete control, read-out: Plant response rating, Soybean
[19] = pre-emergence, Preemergence, scale 0 to 100 (0 no effect, 100 complete control), read-out: Plant response rating, Soybean
[20] = post-emergence, Postemergence, scale 0 to 100, 0 no effect, 100 complete control, read-out: Plant response rating, Velvetleaf
[21] = pre-emergence, Preemergence, scale 0 to 100 (0 no effect, 100 complete control), read-out: Plant response rating, Velvetleaf
[22] = post-emergence, Postemergence, scale 0 to 100, 0 no effect, 100 complete control, read-out: Plant response rating, Waterhemp
[23] = pre-emergence, Preemergence, scale 0 to 100 (0 no effect, 100 complete control), read-out: Plant response rating, Waterhemp
[24] = post-emergence, Postemergence, scale 0 to 100, 0 no effect, 100 complete control, read-out: Plant response rating, Wheat
[25] = pre-emergence, Preemergence, scale 0 to 100 (0 no effect, 100 complete control), read-out: Plant response rating, Wheat
[26] = post-emergence, Postemergence, scale 0 to 100, 0 no effect, 100 complete control, read-out: Plant response rating, Nutsedge, Yellow
[27] = pre-emergence, Preemergence, scale 0 to 100 (0 no effect, 100 complete control), read-out: Plant response rating, Nutsedge, Yellow

Work on Fc1cccc(Oc2ncc(Cl)cn2)c1-c1cc(C(F)(F)F)on1 [Compound 168, 5-chloro-2-[2-[5-(trifluoromethyl)-3-isoxazolyl]-3-fluorophenoxy]pyrimidine] yielded a pest or weed control at 16 g/ha ([1]; 16 g ai/ha) of 100%, a pest or weed control at 31 g/ha ([1]; 31 g ai/ha) of 100% and a pest or weed control at 62 g/ha ([1]; 62 g ai/ha) of 100%. It also gave a pest or weed control at 31 g/ha ([2]; post-emergence, Postemergence, scale 0 to 100 (0 no effect, 100 complete control), read-out: Morningglory plant response rating) of 85%, a pest or weed control at 62 g/ha [2, 10] of 85% and a pest or weed control at 125 g/ha [2, 10] of 85%. It also gave a pest or weed control at 125 g/ha ([2]; pre-emergence, Preemergence, read-out: Plant response rating (scale 0 to 100), Morningglory) of 100%, a pest or weed control at 16 g/ha ([2]; pre-emergence, Preemergence, 16 g ai/ha, scale 0 to 100 (0 no effect, 100 complete control), read-out: Plant response rating, Morningglory) of 5% and a pest or weed control at 31 g/ha [2, 11] of 70%. For the same compound, the pest or weed control at 62 g/ha [2, 11] was 80%, the plant injury at 31 g/ha ([3]; post-emergence, Postemergence, scale 0 to 100 (0 no effect, 100 complete control), read-out: Oilseed Rape plant response rating) was 100% and the plant injury at 62 g/ha [3, 12] was 100%. It also gave a plant injury at 125 g/ha [3, 12] of 100%, a plant injury at 125 g/ha ([3]; pre-emergence, Preemergence, read-out: Plant response rating (scale 0 to 100), Oilseed Rape) of 100% and a plant injury at 16 g/ha ([3]; pre-emergence, Preemergence, 16 g ai/ha, scale 0 to 100 (0 no effect, 100 complete control), read-out: Plant response rating, Oilseed Rape) of 95%. The plant injury at 31 g/ha [3, 13] was 100%, the plant injury at 62 g/ha [3, 13] was 100% and the pest or weed control at 31 g/ha ([4]; post-emergence, Postemergence, scale 0 to 100 (0 no effect, 100 complete control), read-out: Pigweed plant response rating) was 85%. The pest or weed control at 62 g/ha [4, 14] was 95%, the pest or weed control at 125 g/ha [4, 14] was 98% and the pest or weed control at 125 g/ha ([4]; pre-emergence, Preemergence, read-out: Plant response rating (scale 0 to 100), Pigweed) was 100%. The pest or weed control at 16 g/ha ([4]; pre-emergence, Preemergence, 16 g ai/ha, scale 0 to 100 (0 no effect, 100 complete control), read-out: Plant response rating, Pigweed) was 85%, the pest or weed control at 31 g/ha [4, 15] was 100% and the pest or weed control at 62 g/ha [4, 15] was 100%. It also gave a pest or weed control at 31 g/ha ([5]; post-emergence, Postemergence, scale 0 to 100 (0 no effect, 100 complete control), read-out: Ragweed plant response rating) of 50%, a pest or weed control at 62 g/ha [5, 16] of 55% and a pest or weed control at 125 g/ha [5, 16] of 55%. It also gave a pest or weed control at 125 g/ha ([5]; pre-emergence, Preemergence, read-out: Plant response rating (scale 0 to 100), Ragweed) of 100%, a pest or weed control at 16 g/ha ([5]; pre-emergence, Preemergence, 16 g ai/ha, scale 0 to 100 (0 no effect, 100 complete control), read-out: Plant response rating, Ragweed) of 35% and a pest or weed control at 31 g/ha [5, 17] of 45%. The pest or weed control at 62 g/ha [5, 17] was 100%, the plant injury at 31 g/ha (soybean (Glycine max); post-emergence, Postemergence, scale 0 to 100 (0 no effect, 100 complete control), read-out: Soybean plant response rating) was 75% and the plant injury at 62 g/ha (soybean (Glycine max); [18]) was 40%. It also gave a plant injury at 125 g/ha (soybean (Glycine max); [18]) of 90%, a plant injury at 125 g/ha (soybean (Glycine max); pre-emergence, Preemergence, read-out: Plant response rating (scale 0 to 100), Soybean) of 85% and a plant injury at 16 g/ha (soybean (Glycine max); pre-emergence, Preemergence, 16 g ai/ha, scale 0 to 100 (0 no effect, 100 complete control), read-out: Plant response rating, Soybean) of 5%. For the same compound, the plant injury at 31 g/ha (soybean (Glycine max); [19]) was 30%, the plant injury at 62 g/ha (soybean (Glycine max); [19]) was 55% and the pest or weed control at 31 g/ha ([6]; post-emergence, Postemergence, scale 0 to 100 (0 no effect, 100 complete control), read-out: Velvetleaf plant response rating) was 40%. The pest or weed control at 62 g/ha [6, 20] was 45%, the pest or weed control at 125 g/ha [6, 20] was 90% and the pest or weed control at 125 g/ha ([6]; pre-emergence, Preemergence, read-out: Plant response rating (scale 0 to 100), Velvetleaf) was 100%. The pest or weed control at 16 g/ha ([6]; pre-emergence, Preemergence, 16 g ai/ha, scale 0 to 100 (0 no effect, 100 complete control), read-out: Plant response rating, Velvetleaf) was 85%, the pest or weed control at 31 g/ha [6, 21] was 100% and the pest or weed control at 62 g/ha [6, 21] was 100%. The pest or weed control at 31 g/ha ([7]; post-emergence, Postemergence, scale 0 to 100 (0 no effect, 100 complete control), read-out: Waterhemp plant response rating) was 90%, the pest or weed control at 62 g/ha [7, 22] was 98% and the pest or weed control at 125 g/ha [7, 22] was 98%. It also gave a pest or weed control at 125 g/ha ([7]; pre-emergence, Preemergence, read-out: Plant response rating (scale 0 to 100), Waterhemp) of 100%, a pest or weed control at 16 g/ha ([7]; pre-emergence, Preemergence, 16 g ai/ha, scale 0 to 100 (0 no effect, 100 complete control), read-out: Plant response rating, Waterhemp) of 100% and a pest or weed control at 31 g/ha [7, 23] of 100%. The pest or weed control at 62 g/ha [7, 23] was 100%, the plant injury at 31 g/ha ([8]; post-emergence, Postemergence, scale 0 to 100 (0 no effect, 100 complete control), read-out: Wheat plant response rating) was 10% and the plant injury at 62 g/ha [8, 24] was 30%. It also gave a plant injury at 125 g/ha [8, 24] of 35%, a plant injury at 125 g/ha ([8]; pre-emergence, Preemergence, read-out: Plant response rating (scale 0 to 100), Wheat) of 85% and a plant injury at 16 g/ha ([8]; pre-emergence, Preemergence, 16 g ai/ha, scale 0 to 100 (0 no effect, 100 complete control), read-out: Plant response rating, Wheat) of 0%. For the same compound, the plant injury at 31 g/ha [8, 25] was 5%, the plant injury at 62 g/ha [8, 25] was 45% and the pest or weed control at 31 g/ha ([9]; post-emergence, Postemergence, scale 0 to 100 (0 no effect, 100 complete control), read-out: Nutsedge, Yellow plant response rating) was 5%. The pest or weed control at 62 g/ha [9, 26] was 10%, the pest or weed control at 125 g/ha [9, 26] was 15% and the pest or weed control at 125 g/ha ([9]; pre-emergence, Preemergence, read-out: Plant response rating (scale 0 to 100), Nutsedge, Yellow) was 45%. The pest or weed control at 16 g/ha ([9]; pre-emergence, Preemergence, 16 g ai/ha, scale 0 to 100 (0 no effect, 100 complete control), read-out: Plant response rating, Nutsedge, Yellow) was 5%, the pest or weed control at 31 g/ha [9, 27] was 5% and the pest or weed control at 62 g/ha [9, 27] was 15%.
